How the values were obtained:
[1] = tested on: Hypersensitivity-Related Factors; assay: Antibody array (Ary028 immune chip kit): hypersensitivity-related factors after repeated dosing; type: in vivo; settings: ICR mice; tail vein once daily for 5 days; Adamgammadex sodium 1 g/kg, Sugammadex sodium 1 mg/kg, Neostigmine 0.3 mg/kg; pooled plasma of 2 mice; N.D. = below minimum detection limit
Method: (§1) An antibody array is a type of protein chip characterized by miniaturization, integration, and high throughput. It can be used to detect the expression abundance of proteins related to a specific physiological or pathological process. The principle involves arranging capture antibodies on a membrane or glass slide, incubating with the sample, adding biotin-labeled antibodies against the target proteins, and finally using HRP-streptavidin or fluorescein-streptavidin to detect the chip signal. Signals are detected using chemiluminescence or HiLyte™ Fluor 555-streptavidin.
(§2) In this experiment, ICR mice were randomly divided into a blank group, Adamgammadex sodium (1 g/kg) group, Sugammadex sodium (1 mg/kg) group, and Neostigmine (0.3 mg/kg) group, with 2 mice per group. Mice in each group given the corresponding dosage of compound via the tail vein once daily for 5 consecutive days. On the last day after administration, plasma from the 2 animals per group was mixed and detected using the Ary028 immune chip kit. Specific detection steps were as follows: • (1) Sample volume determination: 200 µL serum sample per Array unit. (2) Blocking protein chip: Each membrane was blocked with 2 mL of corresponding Array Buffer, incubated on a shaker for 1 hour. (3) Sample processing: Samples were diluted with corresponding Array Buffer to a volume of 1.5 mL per membrane, the corresponding Array unit was added, and incubated overnight with the Array protein membrane at 4°C. (4) Membranes were washed three times with corresponding Wash buffer, then diluted detection antibody was added and incubated at room temperature for 1 h. (5) Membranes were washed three times with corresponding Wash buffer, streptavidin-HRP was added and incubated for 30min at room temperature with shaking. (6) Membranes were washed three times with corresponding Wash buffer, 1 mL of chemiluminescent reagent was added to each well, and developed on a chemiluminescence imager. (7) Fluorescence intensity was used to represent the relative concentration of the corresponding protein.

[2] = tested on: Inflammation-Related Factors; type: in vivo, ICR mice; settings: Adamgammadex sodium 1 g/kg, Sugammadex sodium 1 mg/kg, Neostigmine 0.3 mg/kg; for impact on inducing immune inflammation in mice (in words): conclusion from Tables 3 and 4; for Fluorescence Intensity M-CSF (Macrophage lysis-stimulating factor): second M-CSF line of Table 4
Method: as §1, §2

[3] = tested on: cisatracurium-induced guinea pig muscle relaxation model; assay: Antagonism of residual muscle relaxation after cisatracurium in anesthetized guinea pigs (TOF monitoring); type: in vivo, Hartley guinea pigs; settings: for Residual Muscle Relaxation Recovery Time tTOF0-50: spontaneous recovery before administration; for Degree of tTOF50-90 shortening: vs negative control group
Method: Ninety (90) qualified Hartley guinea pigs, male, were used. Sixty (60) animals were randomly divided into 6 experimental groups based on body weight using a stratified random method: negative control group, positive control group, low-dose test group, medium-dose test group, high-dose test group, and combination group, with 10 animals per group (n=10). The remaining animals served as spares. The negative control group received 0.9% sodium chloride. The positive control group received 0.0625 mg/kg neostigmine methylsulfate (referred to as neostigmine). The low-dose test group received 10 mg/kg adamgammadex sodium. The medium-dose test group received 20 mg/kg adamgammadex sodium. The high-dose test group received 40 mg/kg adamgammadex sodium. The combination group received 10 mg/kg adamgammadex sodium and 0.03125 mg/kg neostigmine. The administration volume for all groups was 1 mL/kg.
Adaptive feeding was conducted after the quarantine period. On the day of the experiment, guinea pigs were weighed, administered atropine (0.1 mg/kg) intramuscularly, and then anesthetized with an intraperitoneal injection of anesthetic (pentobarbital sodium 10 mg/kg, urethane 1000 mg/kg). After fixation, the animals were intubated and connected to a small animal ventilator. Both external jugular veins and the right carotid artery were cannulated. The left jugular vein was used for cisatracurium infusion, the right jugular vein for injection of different test substances, and the carotid artery was connected to a multi-channel physiological signal acquisition and processing system for continuous monitoring of arterial blood pressure and heart rate. Electrode patches were subcutaneously placed behind the left femur and tibia of the guinea pig, and two stimulating electrodes of the neuromuscular monitor were fixed to the two electrode patches. The left hind paw was fixed on a custom-made platform. A sensor was fixed to the skin surface over the gastrocnemius muscle of the left hind limb, and a skin temperature probe was fixed to a flat area of skin. Continuous single-twitch stimulation was applied at 1 Hz. After the twitch height stabilized, the mode was switched to train-of-four stimulation (TOF mode, stimulus current 5 mA, frequency 2 Hz, pulse width 0.2 ms, interval between trains 15 s) for at least 5 min. Calibration was then performed using Calibration Mode 2, followed by TOF mode stimulation. After obtaining a stable stimulation response for at least 2 min, cisatracurium solution was infused intravenously using a dual-channel micro-infusion pump, and the start time of infusion was recorded. […] At this point, cisatracurium infusion was stopped. After stopping the infusion, neuromuscular function was allowed to recover spontaneously. When neuromuscular function reached moderate recovery, the test drug formulation was administered intravenously. Neuromuscular function was allowed to recover completely, and the administration time was recorded (Figure 1). Using the time of spontaneous recovery to moderate neuromuscular function (TOF50) as zero point, the times for recovery from TOF50 to TOF75, TOF75 to TOF90, and TOF50 to TOF90 were calculated for each animal (Table 1-2). Arterial blood pressure (systolic, diastolic, mean arterial pressure) and heart rate were recorded before cisatracurium infusion, at the time cisatracurium infusion was stopped, at the time of moderate neuromuscular recovery, and at the time of complete neuromuscular function recovery (Tables 3-7). Data were expressed as Mean ± SD. Statistical T-tests were performed using SPSS software to evaluate differences in blood pressure, heart rate, and residual neuromuscular blockade recovery times. P < 0.05 was considered statistically significant.

[4] = ICR mice, tail vein once daily for 5 days, pooled plasma of 2 mice, N.D. = below minimum detection limit
[5] = positive control group, 0.0625 mg/kg i.v.
[6] = high-dose test group, 40 mg/kg i.v.
[7] = low-dose test group, 10 mg/kg i.v.
[8] = medium-dose test group, 20 mg/kg i.v.

CN(C)C(=O)Oc1cccc([N+](C)(C)C)c1 [Neostigmine, neostigmine methylsulfate]
Fluorescence Intensity CCL11 (Eosinophil activation chemokine) [1]: 6286.81
Fluorescence Intensity CCL12 (Monocyte chemotactic receptor 5) [1]: 5003.37
Fluorescence Intensity GM-CSF (Granulocyte-macrophage colony-stimulating factor) [1]: 1679.67
Fluorescence Intensity IL-1α (Interleukin 1α) [1]: 1891.15
Fluorescence Intensity IL-1β (Interleukin 1β) [1]: 1087.46
Fluorescence Intensity IL-3 (Interleukin 3) [1]: 1133.66
Fluorescence Intensity IL-4 (Interleukin 4) [1]: 3939.66
Fluorescence Intensity IL-5 (Interleukin-5) [1]: 1864.09
Fluorescence Intensity IL-6 (Interleukin-6) [1]: 2321.39
Fluorescence Intensity IL-15 (Interleukin-15) [1]: 1503.8
Fluorescence Intensity TNF-α (Tumor necrosis factor) [1]: 1116.77
Fluorescence Intensity BAFF/BlyS/ TNFSF13B (B cell activation factor) [2, 4]: 12170.94
Fluorescence Intensity C-Reactive Protein/CRP (C-reactive protein) [2, 4]: 11999.12
Fluorescence Intensity CCL17/TARC (Thymus activation regulatory chemokine) [2, 4]: 3653.32
Fluorescence Intensity CCL19/MIP 3β (Macrophage inflammatory protein 3β) [2, 4]: 3385.33
Fluorescence Intensity CCL20/MIP 3α (Macrophage inflammatory protein 3α) [2, 4]: 4440.55
Fluorescence Intensity CCL21/6Ckine (Lymphocyte chemokine CCL21) [2, 4]: 17119.34
Fluorescence Intensity CCL22/MDC (Macrophage-derived chemokine) [2, 4]: 4762.19
Fluorescence Intensity CD160 (Leukocyte differentiation antigen160) [2, 4]: 4298.1
Fluorescence Intensity CX3CL1/ Gractalkine (Neural chemokine) [2, 4]: 2935.07
Fluorescence Intensity CXCL1/KC (Neutrophil chemokine) [2, 4]: 2935.82
Fluorescence Intensity CXCL9/MIG (IFN-γ-induced monocyte factor) [2, 4]: 1730.04
Fluorescence Intensity CXCL10/IP-10 (Interferon-induced protein 10) [2, 4]: 1971.99
Fluorescence Intensity CXCL11/I-TAC (Interferon-induced T cell chemokines) [2, 4]: 2397.51
Fluorescence Intensity CXCL13 (CXC family chemokine) [2, 4]: 3607.1
Fluorescence Intensity CXCL16 (CXC family chemokine) [2, 4]: 2426.598
Fluorescence Intensity Chemerin (Chemotactic factor) [2, 4]: 7955.57
Fluorescence Intensity G-CSF (Granulocyte colony-stimulating factor) [2, 4]: 1289.56
Fluorescence Intensity IL-2 (Interleukin-2) [2, 4]: 1107.85
Fluorescence Intensity IL-7 (Interleukin-7) [2, 4]: 3226.41
Fluorescence Intensity IL-10 (Interleukin-10) [2, 4]: 1601.99
Fluorescence Intensity IL-11 (Interleukin-11) [2, 4]: 2195.99
Fluorescence Intensity IL-12p40 (Interleukin IL-12p40) [2, 4]: 2936.85
Fluorescence Intensity IL-13 (Interleukin-13) [2, 4]: 1609.58
Fluorescence Intensity IL-15 (Interleukin-15) [2, 4]: 1503.8
Fluorescence Intensity IL-17A (Interleukin -17A) [2, 4]: 783.45
Fluorescence Intensity IL-22 (Interleukin-22) [2, 4]: 1253.05
Fluorescence Intensity IL-23 (Interleukin-23) [2, 4]: 1483.72
Fluorescence Intensity IL-27p28 (Interleukin-27p28) [2, 4]: 1575.98
Fluorescence Intensity IL-28 (Interleukin-28) [2, 4]: 3505.78
Fluorescence Intensity IL-33 (Interleukin-33) [2, 4]: 1897.86
Fluorescence Intensity M-CSF (Macrophage colony-stimulating factor) [2, 4]: 6478.33
Fluorescence Intensity Myeloperoxidase (Mastoperoxidase) [2, 4]: 6395.44
Fluorescence Intensity Pentraxin 3 (Pertussis toxin 3) [2, 4]: 3694.57
Fluorescence Intensity TIM-1/KIM-1/ HAVCR (Hepatitis A virus receptor-1 (inflammation/ immunity)) [2, 4]: 1197.17
impact on inducing immune inflammation in mice (in words) [2]: most severe impact
Fluorescence Intensity M-CSF (Macrophage lysis-stimulating factor) [2, 4]: 6478.33
Fluorescence Intensity Pentraxin 3/TSG-14 (Pertussis toxin 3) ([2]; second Pentraxin 3 line of Table 4, ICR mice, tail vein once daily for 5 days, pooled plasma of 2 mice, N.D. = below minimum detection limit): 3694.57
Residual Muscle Relaxation Recovery Time Ratios RtTOF50-75/0-50 [3, 5]: 0.09±0.07
Residual Muscle Relaxation Recovery Time Ratios RtTOF50-90/0-50 [3, 5]: 0.18±0.09
Residual Muscle Relaxation Recovery Time Ratios RtTOF75-90/0-50 [3, 5]: 0.09±0.07
Residual Muscle Relaxation Recovery Time tTOF50-75 [3, 5]: 101 ± 71 s
Residual Muscle Relaxation Recovery Time tTOF50-90 [3, 5]: 188 ± 86 s
Residual Muscle Relaxation Recovery Time tTOF75-90 [3, 5]: 87 ± 68 s
Residual Muscle Relaxation Recovery Time tTOF0-50 [3, 5]: 1134 ± 281 s
Degree of tTOF50-90 shortening [3, 5]: 58.7%

Adamgammadex sodium [Compound 1]
Fluorescence Intensity CCL12 (Monocyte chemotactic receptor 5) [1]: 168.83
Fluorescence Intensity IL-4 (Interleukin 4) [1]: 225.32
Fluorescence Intensity IL-6 (Interleukin-6) [1]: 89.83
Fluorescence Intensity BAFF/BlyS/ TNFSF13B (B cell activation factor) [2, 4]: 6659.29
Fluorescence Intensity C-Reactive Protein/CRP (C-reactive protein) [2, 4]: 5549.81
Fluorescence Intensity CCL21/6Ckine (Lymphocyte chemokine CCL21) [2, 4]: 8082.61
Fluorescence Intensity CCL22/MDC (Macrophage-derived chemokine) [2, 4]: 738.38
Fluorescence Intensity Chemerin (Chemotactic factor) [2, 4]: 2680.26
Fluorescence Intensity IL-7 (Interleukin-7) [2, 4]: 1850.57
Fluorescence Intensity IL-28 (Interleukin-28) [2, 4]: 244.77
Fluorescence Intensity M-CSF (Macrophage colony-stimulating factor) [2, 4]: 871.82
Fluorescence Intensity Myeloperoxidase (Mastoperoxidase) [2, 4]: 1927.54
impact on inducing immune inflammation in mice (in words) [2]: smallest impact
Fluorescence Intensity M-CSF (Macrophage lysis-stimulating factor) [2, 4]: 871.82
Residual Muscle Relaxation Recovery Time Ratios RtTOF50-75/0-50 [3, 6]: 0.10±0.11
Residual Muscle Relaxation Recovery Time Ratios RtTOF50-90/0-50 [3, 6]: 0.16±0.11
Residual Muscle Relaxation Recovery Time Ratios RtTOF75-90/0-50 [3, 6]: 0.06±0.06
Residual Muscle Relaxation Recovery Time tTOF50-75 [3, 6]: 131 ± 144 s
Residual Muscle Relaxation Recovery Time tTOF50-90 [3, 6]: 201 ± 131 s
Residual Muscle Relaxation Recovery Time tTOF75-90 [3, 6]: 71 ± 52 s
Residual Muscle Relaxation Recovery Time tTOF0-50 [3, 6]: 1413 ± 693 s
Degree of tTOF50-90 shortening [3, 6]: 55.8%
Residual Muscle Relaxation Recovery Time Ratios RtTOF50-75/0-50 [3, 7]: 0.14±0.10
Residual Muscle Relaxation Recovery Time Ratios RtTOF50-90/0-50 [3, 7]: 0.23±0.13
Residual Muscle Relaxation Recovery Time Ratios RtTOF75-90/0-50 [3, 7]: 0.09±0.05
Residual Muscle Relaxation Recovery Time tTOF50-75 [3, 7]: 143 ± 85 s
Residual Muscle Relaxation Recovery Time tTOF50-90 [3, 7]: 248 ± 139 s
Residual Muscle Relaxation Recovery Time tTOF75-90 [3, 7]: 105 ± 78 s
Residual Muscle Relaxation Recovery Time tTOF0-50 [3, 7]: 1093 ± 427 s
Degree of tTOF50-90 shortening [3, 7]: 45.5%
Residual Muscle Relaxation Recovery Time Ratios RtTOF50-75/0-50 [3, 8]: 0.12±0.05
Residual Muscle Relaxation Recovery Time Ratios RtTOF50-90/0-50 [3, 8]: 0.22±0.08
Residual Muscle Relaxation Recovery Time Ratios RtTOF75-90/0-50 [3, 8]: 0.09±0.07
Residual Muscle Relaxation Recovery Time tTOF50-75 [3, 8]: 159 ± 72 s
Residual Muscle Relaxation Recovery Time tTOF50-90 [3, 8]: 279 ± 123 s
Residual Muscle Relaxation Recovery Time tTOF75-90 [3, 8]: 120 ± 99 s
Residual Muscle Relaxation Recovery Time tTOF0-50 [3, 8]: 1349 ± 381 s
Degree of tTOF50-90 shortening [3, 8]: 38.7%

— patent publication EP4778531A1, “MUSCLE RELAXANT ANTAGONIST FOR REVERSAL FOR BENZYLISOQUINOLINE MUSCLE RELAXANT” (priority 2023, dated 2025)
